The values that follow come from PubChem BioAssay AID1207 (NMMLSC, 2008).

The subject of this assay is yeast RJD 2456 GFP degradation, flow cytometry. Kind of assay: PubChem AID 1207. The settings on record: at 150 µM; active compounds read high.

Calls of active or inactive are those of the source.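 Rule for the calls: active = score above 15, the percent gain in GFP-over-time curve area versus untreated cells across six hours; inactive = the rest.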 Peptide text beside a SMILES is read from it. * marks the point of attachment. Cbz = O=C(OCc1ccccc1)*

In the case of `CC(=O)N1C(=O)C(=C2C=C(C)OC(C)=C2)c2ccccc21`, the GFP remaining is 0.705% (inactive).
Next, `CC(C)C[C@@H](C=O)NC(=O)[C@H](CC(C)C)NC(=O)[C@H](CC(C)C)NC(=O)OCc1ccccc1` (Cbz-Leu-Leu-Leu-aldehyde): 1.91% (inactive).
